Measured values taken from ChEMBL document CHEMBL3045625, “Antifeedant properties and chemotaxonomic implications of sesquiterpene lactones and syringin from Rhaponticum pulchrum” (2006).

Tests used:
Assay type in all cases: functional
Tribolium confusum = assay: Antifeedant activity against Tribolium confusum (confused flour beetle) in compound treated wheat wafer discs assessed as antifeedant index by no-choice/two-choice assay
Sitophilus granarius = assay: Antifeedant activity against Sitophilus granarius (granary weevil) in compound treated wheat wafer disks assessed as antifeedant index by no-choice/two-choice assay
Trogoderma granarium = assay: Antifeedant activity against Trogoderma granarium (khapra beetle) in compound treated wheat wafer disks assessed as antifeedant index by no-choice/two-choice assay

SMILES	Activity (Tribolium confusum)	Activity (Sitophilus granarius)	Activity (Trogoderma granarium)
C=C(C)C(=O)O[C@H]1CC(=C)[C@@H]2C[C@H](O)C(=C)[C@@H]2[C@H]2OC(=O)C(=C)[C@@H]21 [AGUERIN B]	114.5	94.7	116.5
C=C(CO)C(=O)O[C@H]1CC(=C)[C@@H]2C[C@H](O)C(=C)[C@@H]2[C@H]2OC(=O)C(=C)[C@@H]21 [CYNAROPICRIN]	98.8	51.6	49.5
C=C(CO)C(=O)O[C@H]1CC(=C)[C@@H]2C[C@H](O)[C@]3(CO3)[C@@H]2[C@H]2OC(=O)C(=C)[C@@H]21 [JANERIN]	104	69	95
COc1cc(/C=C/CO)cc(OC)c1O[C@@H]1O[C@H](CO)[C@@H](O)[C@H](O)[C@H]1O [SYRINGIN]	125.6	134.4	61.7
